Results: EP1408048A1, “Vaccines of enhanced immunogenicity, and methods for preparing such vaccines” (INSTITUT NATIONAL DE LA SANTE ET DE LA RECHERCHE MEDICALE …, priority 2002, dated 2004)

Tested on: TAP
Assay: TAP competitive binding assay with radio-labeled reporter peptide R9L
Settings: result in words; TAP affinity = inverse of the IC50; reporter peptide R9L at 300 nM
Description: TAP affinities were determined in a competitive binding assay. IC50 values for competitor test peptides were normalized with respect to the IC50 of reporter peptide […] (SEQ ID N° 2).
Determination of HLA-A2 and TAP affinities. […] Results are expressed as inverse normalized IC50 (1/IC50 of test peptide/ IC50 of cold reporter peptide).

- TAP affinity: high
Sequence: RRYNASTEL [R9L]
